According to PMC5017749, “Preclinical Metabolism, Pharmacokinetics and In Vivo Analysis of New Blood-Brain-Barrier Penetrant Fingolimod Analogues: FTY720-C2 and FTY720-Mitoxy” (PLoS ONE, 2016):
Read-outs that look alike come from different tables or passages of the source.

Legend:
[1] = Metabolite profiling and identification in rat hepatocytes; assay type: in vitro ADME, rat (Sprague Dawley); parameters: key to Source (peak identified in rat hepatocytes): R = Rat; hr = Human; lowercase letter indicates low abundance; h: lowercase letter indicates low abundance; settings: for Percent Distribution (1 hr incubation) Rat / Percent Distribution (2 hr incubation) Rat: relative abundance among metabolites of the parent (1 μM), equal LC/MS sensitivity assumed
Protocol: (§1) Cryopreserved hepatocytes were grown in culture and incubations were performed to generate samples to measure the formation of FTY720-C2 and FTY720-Mitoxy metabolites. Incubations of 1 mL medium containing 1 million cells and 1 μM of FTY720-C2 and FTY720-Mitoxy were conducted at 37° C in a 5% CO2 incubator for 0, 1 and 2 hr, with gentle shaking. Positive control incubations used a cocktail solution containing 10 μM testosterone and 10 μM diclofenac performed for 0, 1 and 2 hr, under similar conditions to confirm the metabolic activity of the hepatocytes. The reactions were terminated by adding 2 mL acetonitrile containing 0.02% formic acid, and thoroughly mixing with gentle vortexing. Samples were transferred into 6 mL vials and stored in the freezer (-70°C) overnight for protein precipitation. Following overnight precipitations, samples were centrifuged at 3,000 rpm for 10 min to pellet proteins. Supernatants were transferred into clean 6 mL vials and evaporated to dryness using a TurboVap concentrator system. Samples were reconstituted using 600 μL 20% acetonitrile in water, briefly vortexed to resuspend, then aliquoted for LC-MS/MS analysis. Controls incubations also included “No drug control” and “no cell control” samples treated in a similar manner as test article samples.
(§2) Metabolite profiling and identification experiments were conducted by LC-MS/MS, composed of an HPLC system consisting of an Agilent Technologies 1200 Series Model G1322A Degasser, Agilent Technologies 1200 Series Model G1312A Binary Pump, Shimadzu HTc autosampler, and Valco Model E60 Flow Diversion Valve, and coupled to an API 4000 mass spectrometer. Separations were accomplished on a Gemini C18 column (150 × 2.0 mm, 5-μm particles; Phenomenex Inc., Torrance, CA), preceded by a SecurityGuard C18 guard column (4.0 × 2.0 mm; Phenomenex Inc.). A two-component mobile phase, consisted of a linear gradient of water containing 0.5% formic acid (v/v) and methanol:acetonitrile (1:1, v/v) containing 0.5% formic acid (v/v), was pumped at 0.3 mL/min. The first 4 min of flow was diverted away from the mass spectrometer. Analysis of the positive control samples was conducted with an HPLC system consisting of two Shimadzu LC-10ATvp pumps and a LEAP Pal autosampler. Separations were accomplished on a Luna C8(2) column (50 × 2.0 mm, 3-μm particles; Phenomenex Inc., Torrance, CA), preceded by a SecurityGuard C18 column (4.0 × 2.0 mm; Phenomenex Inc.). Separation was accomplished with a gradient of water containing 0.2% formic acid and 0.012% NH4OH (v/v) versus acetonitrile at an initial rate of 0.7 mL/min. An API 4000 QTrap mass spectrometer (AB Sciex, Foster City, CA) was used for analysis of positive control samples. Each mass spectrometer used was equipped with an electrospray ionization source and operated in the positive ionization mode. Metabolite identification experiments were performed by recording full scan mass spectral data (Q1MS) for all samples, and selected samples were analyzed to obtain product ion spectra (MS/MS) of test article metabolites identified in the full scan mass spectral data.

[2] = Metabolite profiling and identification in human hepatocytes; assay type: in vitro ADME; parameters: key to Source (peak identified in human hepatocytes): R = Rat; hr = Human; lowercase letter indicates low abundance; h: lowercase letter indicates low abundance; settings: for Percent Distribution (1 hr incubation) Human / Percent Distribution (2 hr incubation) Human: relative abundance among metabolites of the parent (1 μM), equal LC/MS sensitivity assumed
Protocol: as §1, §2

[3] = Metabolic stability (intrinsic clearance) in dog liver microsomes; assay type: in vitro ADME, dog (Beagle); settings: dog liver microsomes
Protocol: (§3) Liver microsomal incubations contained 0.1mg/mL microsomal proteins and 1 μM of FTY720-C2 or FTY720-Mitoxy in 100 mM potassium phosphate buffer (pH 7.4) ± an NADPH regenerating system (3.5 mM glucose 6-phosphate, 1.3 mM NADP^+, and 0.4 units/mL glucose-6-phosphate dehydrogenase). Following incubations, reactions were terminated for analysis after 0, 10, 20, 30, and 60 min by the addition of acetonitrile containing C17 sphingosine (300 ng/mL) as the internal standard. Samples were vigorously mixed and centrifuged at 3,400 rpm for 10 min to pellet precipitated proteins. An aliquot of each supernatant was used for LC/MS analysis, for determination of the remaining FTY720-C2 and FTY720-Mitoxy. Similar incubations were performed using a cocktail solution containing 0.2 μM midazolam and 1 μM diclofenac to determine the metabolic activity of the microsomes as an additional control.
(§4) Samples resulting from liver microsomal incubations were analyzed by LC-MS/MS. Aliquots of the supernatants were injected onto an X-Bridge C18 column (2.1 × 50 mm, 3.5-μm particles) (Waters, Milford, MA), preceded by a SecurityGuard C18 guard column (4.0 × 2.0 mm; Phenomenex Inc.). Separations were accomplished with a gradient of 0.1% acetic acid in water (v/v) versus 0.1% acetic acid in acetonitrile: methanol (75:25, v/v) at a rate of 0.8 mL/min. The eluents were further applied into an equipped API 4000 QTrap mass spectrometer (AB Sciex, Foster City, CA) with electrospray ionization (ESI) interface by two coupled LC-10 AT pumps. Peak area ratios of FTY720-C2 or FTY720-Mitoxy against the C17 sphingosine internal standard were used to determine the amount of parent remaining compared to that at 0 min. The percent of FTY720-C2 or FTY720-Mitoxy remaining was calculated by dividing the peak area ratio obtained at each time point by that obtained at 0 min. The in vitro intrinsic clearance (CLint) was calculated by linear regression of the log percent of compound remaining versus time plots using Microsoft Excel, two independent experiments (n = 2) were performed for each compound and species. Then, the mean and standard deviation (SD), of two values for each condition, were calculated using Microsoft Excel with the “AVERAGE” and “STDEV” functions, respectively.

[4] = Metabolic stability (intrinsic clearance) in rat liver microsomes; assay type: in vitro ADME, rat (Sprague-Dawley); settings: rat liver microsomes
Protocol: as §3, §4

[5] = Metabolic stability (intrinsic clearance) in human liver microsomes; assay type: in vitro ADME
Protocol: as §3, §4

[6] = parameters: method as in PMID 16751263; settings: rat, single IV doses ranging from 0.3 to 4 mg/kg; cited from earlier work
[7] = human, cited from earlier work
[8] = Metabolic stability (intrinsic clearance) in monkey liver microsomes; assay type: in vitro ADME, monkey (Cynomolgus); settings: monkey liver microsomes
Protocol: as §3, §4

[9] = Metabolic stability (intrinsic clearance) in mouse liver microsomes; assay type: in vitro ADME, mouse (CD-1); settings: mouse liver microsomes
Protocol: as §3, §4

[10] = rat hepatocytes, listed as FTY720-C2 C8-COOH
[11] = human hepatocytes, listed as FTY720-C2 C8-COOH
[12] = FTY720-Mitoxy incubation, Table 5
[13] = rat hepatocytes, listed as FTY720-Mitoxy C6-COOH
[14] = human hepatocytes, listed as FTY720-Mitoxy C6-COOH

SMILES | Source (peak identified in rat hepatocytes) ([1]; FTY720-C2 incubation, Table 4) | Percent Distribution (1 hr incubation) Rat ([1]; rat hepatocytes) [%] | Percent Distribution (2 hr incubation) Rat ([1]; rat hepatocytes) [%] | Source (peak identified in human hepatocytes) ([2]; FTY720-C2 incubation, Table 4) | Percent Distribution (1 hr incubation) Human ([2]; human hepatocytes) [%] | Percent Distribution (2 hr incubation) Human ([2]; human hepatocytes) [%] | Source (peak identified in rat hepatocytes) [1, 12] | Source (peak identified in human hepatocytes) [2, 12] | also measured
CC(=O)NC(CO)(CO)CCc1ccc(CC(=O)O)cc1 [FTY720-C2 C2-carboxylic acid] | R | 21.4 | 35.72 | H | 3.2 | 7.21 |  |  | 
CCCCCCCCc1ccc(CCC(N)(CO)CO)cc1 [FTY720, Fingolimod] |  |  |  |  |  |  |  |  | intrinsic clearance interpreted in words [3]: slow and low; phosphorylated metabolites ([1]; rat hepatocytes): identified; intrinsic clearance interpreted in words [4]: slow and low; intrinsic clearance interpreted in words [5]: slow and low; half-life [6]: ~ 20 hr; elimination half-life ([7]; after oral dosing): about 7 days; half-life ([7]; single oral doses of 1 mg): ~ 7 days; intrinsic clearance interpreted in words [8]: slow and low; intrinsic clearance interpreted in words [9]: slow and low; phosphorylated metabolites ([2]; human hepatocytes): identified
CC(=O)NC(CO)(CO)CCc1ccc(CCCCCCCC(=O)O)cc1 [FTY720-C2 C8-carboxylic acid] | R | 37.0 | 39.37 | H | 49.0 | 52.13 |  |  | Percent Distribution (1 hr incubation) Rat [1, 10]: 37%; Percent Distribution (2 hr incubation) Rat [1, 10]: 39%; Percent Distribution (1 hr incubation) Human [2, 11]: 49%; Percent Distribution (2 hr incubation) Human [2, 11]: 52%
O=C(O)CCCCCc1ccc(CCC(CO)(CO)NC(=O)CC[P+](c2ccccc2)(c2ccccc2)c2ccccc2)cc1 [FTY720-Mitoxy C6-carboxylic acid] |  | 83.6 | 79.3 |  | 58.6 | 54.8 | R | H | Percent Distribution (1 hr incubation) Rat [1, 13]: 84%; Percent Distribution (2 hr incubation) Rat [1, 13]: 79%; Percent Distribution (1 hr incubation) Human [2, 14]: 59%; Percent Distribution (2 hr incubation) Human [2, 14]: 55%
CC(=O)NC(CO)(CO)CCc1ccc(CCCC(=O)O)cc1 [FTY720-C2 C4-carboxylic acid] | R | 9.7 | 12.88 | H | 23.7 | 25.57 |  |  | 
O=C(O)CCCCCCCc1ccc(CCC(CO)(CO)NC(=O)CC[P+](c2ccccc2)(c2ccccc2)c2ccccc2)cc1 [FTY720-Mitoxy C8-carboxylic acid] |  | 4.4 | 3.4 |  | 20.0 | 27.3 | R | H | 
